# Measurements from ChEMBL document CHEMBL1130906, “Actinomycin D, C2 and VII, inhibitors of Grb2-SHC interaction produced by Streptomyces” (Bioorg Med Chem Lett, 1998).
# Numbered stars: 1 amine (or outer) side, 2 acyl side, 3 side chain; on linkers, the order of the positions; unused ones are H or OH. Bridge positions count the residues as written; N and C are the ends. Square brackets hold non-standard residues; d marks the D form. Peptide text beside a SMILES is read from it. I, II: the chains in the order shown. Actinocin(1to9) = Cc1c2oc3c(C)ccc(C(=O)[*:2])c3nc-2c(C(=O)[*:1])c(N)c1=O; Actinocin(9to1) = Cc1c2oc3c(C)ccc(C(=O)[*:1])c3nc-2c(C(=O)[*:2])c(N)c1=O; NMeV = CN[CH](C(=O)O)C(C)C; Sar = CNCC(=O)O
# Target: Growth factor receptor-bound protein 2 (Homo sapiens, UniProt P62993)
# Test: Inhibition of GST-Grb2 Tyrosine kinase SH2 domain binding to [3H]labeled-phosphopeptide (Ac-SpYVNK-NH-C(O)-CH2CH2H3)
row,IC50 [µM],Structure (SMILES)
1,7.6,"CCC(C)C1NC(=O)C(NC(=O)c2c3nc4c(C(=O)NC5C(=O)NC(C(C)CC)C(=O)N6CCCC6C(=O)N(C)CC(=O)N(C)C(C(C)C)C(=O)OC5C)ccc(C)c4oc-3c(C)c(=O)c2N)C(C)OC(=O)C(C(C)C)N(C)C(=O)CN(C)C(=O)C2CCCN2C1=O (stereo not drawn) (I: TIP[Sar][NMeV] / II: TIP[Sar][NMeV]; ester I:1-I:C, II:1-II:C; linker I:N-II:N via Actinocin(1to9); configuration not given here)"
2,5,"Cc1c2oc3c(C)ccc(C(=O)N[C@@H]4C(=O)N[C@H](C(C)C)C(=O)N5CCC[C@H]5C(=O)N(C)CC(=O)N(C)[C@@H](C(C)C)C(=O)O[C@@H]4C)c3nc-2c(C(=O)N[C@@H]2C(=O)N[C@H](C(C)C)C(=O)N3CCC[C@H]3C(=O)N(C)CC(=O)N(C)[C@@H](C(C)C)C(=O)O[C@@H]2C)c(N)c1=O [DACTINOMYCIN] (I: T[dV]P[Sar][NMeV] / II: T[dV]P[Sar][NMeV]; ester I:1-I:C, II:1-II:C; linker I:N-II:N via Actinocin(9to1))"
3,5.9,"CC[C@H](C)[C@@H]1NC(=O)[C@@H](NC(=O)c2ccc(C)c3oc4c(C)c(=O)c(N)c(C(=O)N[C@@H]5C(=O)N[C@@H](C(C)C)C(=O)N6CCC[C@H]6C(=O)N(C)CC(=O)N(C)[C@@H](C(C)C)C(=O)O[C@@H]5C)c-4nc23)[C@@H](C)OC(=O)[C@H](C(C)C)N(C)C(=O)CN(C)C(=O)[C@@H]2CCCN2C1=O (I: TIP[Sar][NMeV] / II: TVP[Sar][NMeV]; ester I:1-I:C, II:1-II:C; linker I:N-II:N via Actinocin(9to1))"
